Assay results taken from PubChem BioAssay AID588786 (The Scripps Research Institute Molecular Screening Center, 2011).
Activity calls are given as the source filed them. How the calls were made is not given here.

Molecular target: SARS coronavirus 3C-like protease (3CLpro)
Test: SARS 3CLpro protease inhibitor potency, late-stage follow-up, biochemical, fluorescence, dose response, set 4 (AID 588786)
Conditions: recombinant 3CLpro, fluorogenic peptide cleavage

| SMILES | IC50 |
| --- | --- |
| CC(C)(C)NC(=O)C(c1cccnc1)N(C(=O)c1ccco1)c1ccc(I)cc1 (stereo not given) | inactive |
| CC(C)(C)NC(=O)C(c1cccnc1)N(C(=O)c1ccco1)c1ccc(-c2ccccc2)cc1 (stereo not given) | 2.3 µM |
| CC(C)(C)NC(=O)C(c1cccnc1)N(C(=O)c1ccco1)c1ccc(-c2cccn2C(=O)OC(C)(C)C)cc1 (stereo not given) | inactive |
| CC(C)(C)NC(=O)C(c1cccnc1)N(C(=O)c1ccco1)c1ccc(-c2cccc(F)c2F)cc1 (stereo not given) | 3.2 µM |
| CC(C)(C)c1ccc(N(Cc2cccnc2)C(=O)c2cnc[nH]2)cc1 | inactive |
| CC(C)(C)NC(=O)C(c1cccnc1)N(C(=O)c1ccco1)c1ccc(OCc2ccccc2)cc1 (stereo not given) | inactive |
| COc1cccc(Oc2ccc(N(C(=O)c3ccco3)C(C(=O)NC(C)(C)C)c3cccnc3)cc2)c1 (stereo not given) | inactive |
| CC(C)(C)NC(=O)C(c1cccnc1)N(C(=O)c1ccco1)c1ccc(-c2cncnc2)cc1 (stereo not given) | 4.5 µM |
| CC(C)(C)NC(=O)C(c1cccnc1)N(C(=O)c1ccco1)c1ccc(-c2cccnc2)cc1 (stereo not given) | inactive |
| Cc1noc(C)c1-c1ccc(N(C(=O)c2ccco2)C(C(=O)NC(C)(C)C)c2cccnc2)cc1 (stereo not given) | inactive |
